From paper PMC11574045, “A cofactor-induced repressive type of transcription factor condensation can be induced by synthetic peptides to suppress tumorigenesis” (The EMBO Journal, 2024) come the findings set out here.

“And” between values parts separate entries of the source, which are not always exact repeats. Equal values may be shown once. Ends that are not written are not given here.

In series [1] the target is T1, TEAD4 (Homo sapiens, UniProt Q15561).
T1 construct: His; made in house; host or cells: Escherichia coli BL21(DE3)
T1 sequence (Q15561 whole entry): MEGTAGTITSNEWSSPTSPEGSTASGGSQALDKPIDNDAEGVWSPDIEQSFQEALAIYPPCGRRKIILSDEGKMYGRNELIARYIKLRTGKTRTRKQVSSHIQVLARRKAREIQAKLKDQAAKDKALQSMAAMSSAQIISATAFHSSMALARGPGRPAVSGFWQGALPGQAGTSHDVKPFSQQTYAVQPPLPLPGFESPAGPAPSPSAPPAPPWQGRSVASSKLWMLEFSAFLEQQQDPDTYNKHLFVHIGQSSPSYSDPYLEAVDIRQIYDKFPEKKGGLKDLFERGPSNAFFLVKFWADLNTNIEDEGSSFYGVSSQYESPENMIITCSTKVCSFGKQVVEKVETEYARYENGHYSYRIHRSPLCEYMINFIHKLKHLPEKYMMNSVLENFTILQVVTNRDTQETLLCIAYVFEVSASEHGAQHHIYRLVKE
Kind of series: In vitro LLPS (droplet formation) assay. It counts as biochemical. How it is done:
LLPS was induced at room temperature by diluting proteins and NaCl to specified concentrations (20, 150, 500 mM). After subsequent mixing, 10 μl of the reaction solution were gently transferred onto a 20 mm glass-bottomed dish (NEST, 801001) for differential interference contrast (DIC) imaging performed using a Zeiss LSM 880 confocal microscope equipped with a 20× water immersion objective lens. Unless otherwise indicated (e.g., in the figure legend), the final concentration of purified protein used for in vitro LLPS assays was 40 μM.

In series [2] the test system is GFP-TEAD4 condensates in HEK293FT cells. Put plainly: GFP-TEAD4 condensate imaging, condensed fraction in cells. Type of series: cell-based. As to conditions: HEK293FT, GLUP 10 μg/ml (5 μM) 12 h; individual cells, n = 9.
Series [3] has the same test system. Put plainly: FRAP of TEAD4 condensates in live cells. To be noted: GLUP-treated HEK293FT cells. It counts as cell-based. The procedure:
For FRAP analysis, cells were seeded at a confluency of ~30% on a 35-mm glass-bottomed dish (Cellvis D35C4-20-1-N). Live cell imaging was carried out using a Leica SP8 confocal microscope (Leica, Germany) with a 63× oil immersion objective lens. A defined region with a diameter of ~1 μm was photobleached by the equipped laser at ~90% power intensity. Fluorescence intensities of the region were recorded by carrying out time-lapse live imaging with a 1.29 s interval and further quantified using Fiji ImageJ software.

Series [4] has as its system HGC-27 cells. Kind of series: Live-cell imaging of FAM-GLUP cellular entry. To be noted: FAM-GLUP 10 μg/ml (5 μM), HGC-27 live cells. It counts as cell-based, human. The procedure: (§1) To confirm cellular entry of GLUP, we performed immunostaining of live cells treated with a fluorescein-labeled version of the peptide (FAM-GLUP). […] We then examined the potential effect of GLUP on TEAD4-mediated perturbation of DNA conformation.
(A) Representative live-cell images of HGC-27 cells treated with FAM (a fluorescent moiety)-labeled GLUP for indicated periods of time. FAM-GLUP: 10 μg/ml (5 μM). Scale bar, 10 μm. (B) Representative DAPI staining images of DNA showing its organization and appearance in the presence or absence of TEAD4 and GLUP as indicated. GLUP: 1 μg/ml (0.5 μM). Scale bar, 100 nm. (C) Representative N-SIM images of chromatin in GLUP-treated cells stained with DAPI. GLUP, 1 μg/ml (0.5 μM). Scale bar, 100 nm. (D) Representative images showing co-localization of GFP-TEAD4 with H3K27me3 in HEK293FT cells treated with GLUP together with 1,6-Hex. Scale bar, 1 μm. (E) Average enrichment profiles of H3K27me3 in GLUP-treated WT or TEAD4KO HGC-27 cells, stratified by gene length (three biological replicates, n = 3). Normalization of coverage using RPKM was performed over the genes and flanking region 1 kb in length. GLUP: 10 μg/ml (5 μM). […] The interval scale was 10 in both cases. See also Appendix Fig. S6. Source data are available online for this figure.

Series [5] deals with HGC-27 cells. Put plainly: RNA sequencing. To be noted: GLUP-treated HGC-27 cells. Type of series: cell-based, human. How it is done: For RNA sequencing, HGC-27 cells in 6-well plates were treated with GLUP peptide at 10 μg/ml for 48 h. The stocking buffer (20 mM HEPES pH 7.5, and 100 mM NaCl) was used as a negative control. Total RNA was extracted from at least two biological replicates. Extracted RNA was monitored for its quality using a 2100 Expert Bioanalyzer (Agilent) before being sent for library preparation and RNA sequencing (Majorbio). The RNA sequencing data were analyzed on a free online Majorbio I-Sanger Cloud Platform (www.majorbio.com).

Series [6] can be described thus: Toxicity analysis (blood testing, blood biochemistry, pathology). It counts as in vivo, mouse. To be noted: BALB/c mice, GLUP 1 or 10 mg/kg i.p. every 2 days, 14 days. The procedure:
Healthy BALB/c mice (~8 weeks, n = 5) were injected intraperitoneally with GLUP (1, 10 mg/kg, respectively, every 2 days), and mice of the control group were injected with saline (10 ml/kg, n = 5). The mice were continuously observed for 14 days after the administration and then sacrificed for routine blood testing (of white blood cells, red blood cells, platelets, lymphocytes, monocytes, and neutrophils), examination of the blood biochemistry (hemoglobin, albumin, glucose, creatinine, urea, AST, and ALT) and pathology examination.

The subject of series [7] is TEAD4^high or TEAD4^low GC patient-derived xenografts. Kind of series: Patient-derived xenograft (PDX) model. Type of series: in vivo, mouse. Details: Tumor area, TEAD4High PDX / Tumor area, TEAD4Low PDX: unit not given beside the values. The procedure:
To establish PDX models, cell suspensions from GC patients were prepared as they were for PDOs. Subcutaneous implantation was performed on one flank of 5-week-old SCID mice weighing from 16 to 18 g and that were anesthetized using a isoflurane/oxygen mixture. Tumor growth was monitored by taking biweekly measurements of the implantation sites. Serial engraftments of each tumor were performed when the tumor reached a volume of ~500 mm^3. Subsequently, PDX tumors were enzymatically disassociated to form a single-cell suspension. To reduce murine cell populations, the cell suspension was then subjected to magnetic mouse cell depletion using a MACS mouse cell depletion kit (Miltenyi Biotech, Bergisch Gladbach, Germany). Following the cell depletion, all established PDX cell lines were maintained at steady rates of proliferation in RPMI 1640 medium. Additionally, a small piece of tumor tissue was obtained using a scalpel and fixed in 10% formalin-buffered saline for histological analysis.
Background: A xenograft is tissue or cells of one species grown in another, often human tumour cells in immunodeficient mice.

Series [8] concerns WT or TEAD4KO HGC-27 cells. Kind of series: Cut&Tag. To be noted: GLUP 10 μg/ml (5 μM). It counts as cell-based, human.
In series [9] the target is T2, TEAD4-DNA (Homo sapiens, UniProt Q15561).
T2 construct: His; made in house; host or cells: Escherichia coli BL21(DE3)
T2 sequence (Q15561 whole entry): as above
Put plainly: DAPI imaging of M-CAT DNA organization with purified proteins. It counts as biochemical. To be noted: GLUP 1 μg/ml (0.5 μM). How it is done: LLPS is considered as principle for chromosome compartmentalization and condensation (Hildebrand and Dekker, [2020]; Shin et al, [2018]). […] To test this hypothesis, we used confocal microscopy to observe the morphology of M-CAT DNA (Fig. 4D). […] When VGLL4 protein was added into the mixture, the DNA chains appeared more aggregated and tangled (Fig. 4D).
as §1

Setting [10] is: 5 mg/kg GLUP daily for 15 d, individual mice, n = 8 (source data Fig 8I).

For “RRVCVHFHFSLSLR-NH2 (C-terminus assumed) [glup]”, in series [1] (PEG solution, vials before and after GLUP), the “Turbidity of TEAD4 solution after GLUP” value is listed as “high turbidity in a PEG solution”. The TEAD4 droplet formation result in series [1] (mCherry-TEAD4 with FAM-GLUP 20, 40, 80 µM) is on record as “strongly promoted TEAD4 droplet formation”. The “Condensed fraction of GFP-TEAD4” value in [2] is 25.1852% and 50.001% and 27.6986% and 34.6228% and 22.4908% and 43.1106% and 47.5218% and 38.4928% and 44.4447%. The “mobile fraction (FRAP)” value in series [3] is reported as “about 62%”. Besides, the figures for the Cellular localisation entry in series [4] (30 min) and in series [4] (80 min) were “in the cytoplasm but outside of the nucleus” and “throughout in the cell including the nucleus”, respectively. Further, in series [5], the “GSEA of TEAD signature genes” value was “negative enrichment of TEAD signature genes”. Also, in series [6], the “Blood findings upon GLUP treatment” value was “a range of blood biochemical abnormalities e.g., in numbers of platelets and neutrophils”. Moreover, in series [7] (setting [10]), the “Tumor area, TEAD4High PDX” value is 0 and 0.0472 and 0.0501 and 0.0406 and 0.03159 and 0.05051. For the same substance, the “Tumor area, TEAD4Low PDX” value in series [7] (setting [10]) is 0.09232 and 0.08466 and 0.08264 and 0.05322 and 0.1278 and 0.08635 and 0.1028 (2×). Moreover, the “Tumor response, TEAD4^high PDX” value in series [7] (GLUP (i.v.) for 2 weeks) was “significantly regressed”. In addition, the “Tumor response, TEAD4^low PDX” value in series [7] (GLUP (i.v.) for 2 weeks) is on record as “did not respond to the GLUP treatment”. Further, the “H3K27me3 signals at 3 kb regions flanking TSS” value in [8] (TEAD4-depleted HGC-27 cells) is “no such effect was detected”; in series [8] (WT HGC-27 cells), “dramatically strengthened the signals of H3K27me3”. In addition, the “Effect on TEAD4-mediated DNA conformation” value in series [9] was “strongly promoted TEAD4-mediated formation of DNA aggregations and tangles”.
